Several values for one entry are separate records, joined by “and”; a condition that tells them apart may be missing. Equal values may be shown once.
What was measured:
HepG2 cells = test: Phospholipidosis in HepG2 cells; assay type: cell-based; conditions: 0–100 µM
[1] = test system: primary human fibroblasts; test: Collagen crosslinking in vitro, scar-in-a-jar, LC-MS/MS; assay type: cell-based; design: PYD: unit not given beside the values; HLNL / DHLNL / DPD: unit not given here; conditions: 11 days, biological replicates
Procedure: To determine the effects of PXS-4787 on collagen cross-link formation, primary human fibroblasts from six different participants (six biological replicates) were cultured for 11 days using ‘scar-in-a-jar’ conditions in the presence of 0, 1, and 10 µM of inhibitor. Liquid chromatography with tandem mass spectrometry (LC-MS/MS) was used to measure hydroxyproline and cross-link concentrations in these samples. Hydroxyproline concentration provides a close estimate of collagen concentration as it is present in high concentrations in collagens and is critical to fibril formation.
Primary scar fibroblasts were seeded in a complete media at density 75 × 10^4 cells per well in a T-25 tissue culture flask at 37 °C and 5% CO2. After 16 h the complete media was replaced by the stimulated media ([…] Ficoll 70 and (25 mg/ mL) Ficoll 400, 5 ng/mL TGF-β1, 0.5% FBS, […] L-ascorbic acid-2-phosphate) in DMEM-Glutamax™ supplemented with 0.5% FBS and 1% Penicillin/ Streptomycin and 1 and 10 µM concentrations of PXS-4787 for 11 days to allow time for sufficient crosslinking of extracellular collagen. After 11 days, the media was aspirated and cells were trypsinized for 30 min and reduced with 12 mg/mL Sodium Borohydride in 20 mM Sodium Hydroxide solution followed and incubated for 30 min at room temperature. The pH of the solution was made acidic using 50 µL of neat acetic acid. The solution was centrifuged at 20,000g for 15 min at 4 °C followed by three washes with MilliQ water and samples processed for crosslinking analysis.
Cell pellets or isolated tissue samples were completely hydrolyzed in 1.5 mL 6 M hydrochloric acid for 24 h at 105 °C. After complete hydrolysis, samples were dried using a vacuum dryer and reconstituted using 200 µL MilliQ water. The sample clean-up was performed using solid-phase extraction method which uses C18 and SCX solid-phase extraction cartridges for sample purification. The samples were run on UPLC-MS-MS (Mass Spectrometer: Thermo Scientific TSQ Endura Triple quadrupole, UPLC: Thermo Scientific Dionex UltiMate 3000) using Agilent RRHD SB-C18,2.1x50mm,1.8um analytical column and solvent A: 10 mM ammonium formate, 0.1% formic acid, 0.1% HFBA in H2O and solvent B: 10 mM ammonium formate, 0.1% formic acid, 0.1% HFBA in MeOH and analyzed as previously described. Limits of detection are listed in Supplementary Table S4.

Histamine H3 = Histamine H3 (Homo sapiens, UniProt Q9Y5N1); test: Eurofins panel 239820; assay type: binding
Sequence of Histamine H3 (Q9Y5N1 whole entry): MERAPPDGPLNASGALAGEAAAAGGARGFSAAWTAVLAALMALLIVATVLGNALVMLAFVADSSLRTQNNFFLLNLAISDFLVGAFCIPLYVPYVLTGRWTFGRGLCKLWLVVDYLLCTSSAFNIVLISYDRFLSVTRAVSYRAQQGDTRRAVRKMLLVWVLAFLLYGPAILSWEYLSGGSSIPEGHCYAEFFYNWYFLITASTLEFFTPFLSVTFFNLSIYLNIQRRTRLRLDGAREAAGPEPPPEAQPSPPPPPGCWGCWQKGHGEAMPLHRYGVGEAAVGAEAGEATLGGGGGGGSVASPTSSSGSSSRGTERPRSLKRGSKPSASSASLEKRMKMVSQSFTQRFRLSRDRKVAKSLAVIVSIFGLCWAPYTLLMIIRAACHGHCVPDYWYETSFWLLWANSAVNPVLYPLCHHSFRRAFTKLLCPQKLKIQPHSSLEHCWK

Neuropeptide Y Y1 = Neuropeptide Y Y1 (Homo sapiens, UniProt P25929); test: Eurofins panel 257010; assay type: binding
Sequence of Neuropeptide Y Y1 (P25929 whole entry): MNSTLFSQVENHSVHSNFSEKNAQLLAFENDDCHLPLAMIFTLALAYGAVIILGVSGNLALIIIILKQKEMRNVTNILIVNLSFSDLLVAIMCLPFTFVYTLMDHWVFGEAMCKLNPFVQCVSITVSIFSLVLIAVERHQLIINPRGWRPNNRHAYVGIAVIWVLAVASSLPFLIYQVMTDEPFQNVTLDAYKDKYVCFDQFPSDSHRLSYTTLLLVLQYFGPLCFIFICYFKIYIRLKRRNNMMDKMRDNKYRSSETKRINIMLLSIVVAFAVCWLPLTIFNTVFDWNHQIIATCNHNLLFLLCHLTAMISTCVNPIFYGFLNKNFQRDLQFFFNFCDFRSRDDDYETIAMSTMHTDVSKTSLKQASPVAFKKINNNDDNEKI

[2] = target: Platelet Activating Factor (PAF) (Homo sapiens, UniProt P25105); test: Eurofins panel 265010; assay type: binding
Sequence of Platelet Activating Factor (PAF) (P25105 whole entry): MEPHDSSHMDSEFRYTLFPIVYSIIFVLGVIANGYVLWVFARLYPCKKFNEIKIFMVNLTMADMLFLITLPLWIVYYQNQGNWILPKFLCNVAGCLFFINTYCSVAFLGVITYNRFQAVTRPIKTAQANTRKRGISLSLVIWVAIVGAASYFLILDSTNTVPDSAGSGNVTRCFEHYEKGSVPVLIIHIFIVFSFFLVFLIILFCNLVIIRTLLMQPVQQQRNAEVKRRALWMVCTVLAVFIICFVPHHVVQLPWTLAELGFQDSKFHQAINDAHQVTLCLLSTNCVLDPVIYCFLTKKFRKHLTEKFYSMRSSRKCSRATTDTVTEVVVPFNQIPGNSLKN

Prostanoid EP4 = Prostanoid EP4 (Homo sapiens, UniProt P35408); test: Eurofins panel 268420; assay type: binding
Sequence of Prostanoid EP4 (P35408 whole entry): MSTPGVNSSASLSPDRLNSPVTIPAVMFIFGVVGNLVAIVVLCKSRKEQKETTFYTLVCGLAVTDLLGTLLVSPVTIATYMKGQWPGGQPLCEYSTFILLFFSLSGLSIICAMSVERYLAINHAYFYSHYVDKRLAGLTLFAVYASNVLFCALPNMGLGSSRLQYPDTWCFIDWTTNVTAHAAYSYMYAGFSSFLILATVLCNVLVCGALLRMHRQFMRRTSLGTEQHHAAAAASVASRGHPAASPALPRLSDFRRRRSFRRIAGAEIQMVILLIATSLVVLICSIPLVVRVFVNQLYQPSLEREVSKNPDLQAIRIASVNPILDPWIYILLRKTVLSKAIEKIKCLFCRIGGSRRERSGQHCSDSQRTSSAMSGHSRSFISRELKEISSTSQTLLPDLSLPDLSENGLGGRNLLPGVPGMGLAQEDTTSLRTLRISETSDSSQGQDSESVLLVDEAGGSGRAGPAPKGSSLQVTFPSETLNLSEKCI

[3] = Rat pharmacokinetic-pharmacodynamic model, skin concentration; assay type: in vivo; conditions: topical; for concentration at 24 h after the last dose: 24 h after last dose; for concentration at 24 h: 500 mg on 16 cm^2, 24 h
Procedure: PXS-6302 was formulated as an oil in water cream of different concentrations (0, 0.3, 1, 10%) and applied to a shaved area on the back of a rat (500 mg cream applied to 16 cm^2). After 24 h animals were sacrificed, the concentration of PXS-6302 in the skin was measured and the lysyl oxidase activity determined.
To investigate the effect of repeat dosing, cream at different concentrations (0, 0.5, 1, and 3% PXS-6302, 400 mg applied to 16 cm^2) was applied once daily for 5 consecutive days and 24 h after the last dose, animals were sacrificed and the skin concentration determined.
PXS-6302 was formulated as an oil in water cream of different concentrations (0, 0.3, 1, 10%) and applied to a shaved area on the back of an adult rat (500 mg cream applied to 16 cm^2 skin surface area). After 24 h animals were euthanased. For the detection of lysyl oxidase activity in the skin, epidermal and dermal layers of the skin were dissected, pre-cooled with liquid nitrogen and pulverized. Samples were washed by homogenization with ice-cold wash buffer (0.15 M NaCl, 50 mM sodium borate, pH 8.0 with 0.25 mM PMSF and 1 µL/mL bovine aprotinin as protease inhibitors) at 100 µL/mg, centrifuged at 10,000 × g for 10 min at 4 °C and supernatant discarded. After the final washing step, the pellet was resuspended in extraction buffer (6 M urea, 50 mM sodium borate, pH 8.2 with 0.25 mM PMSF and 1 µL/mL aprotinin as protease inhibitors) with ratio of buffer volume to tissue weight at 4:1. After a 3 h incubation at 4 °C, the mixture was diluted 1:2 with assay buffer containing 50 mM sodium borate (pH 8.2), centrifuged at 20,000 × g for 20 min at 4 °C. The collected supernatant was spiked with pargyline hydrochloride and mofegiline hydrochloride at final concentrations of 0.5 mM and 1 µM, respectively, to inhibit amine oxidases. Lysyl oxidase activity was measured as previously described. The concentration of PXS-6302 in the skin was also measured in the same samples using LCMSMS as described for Franz cell diffusion assay.

[4] = target: Serotonin (5-Hydroxytryptamine) 5-HT1B (Homo sapiens, UniProt P28222); test: Eurofins panel 271230; assay type: binding
Sequence of Serotonin (5-Hydroxytryptamine) 5-HT1B (P28222 whole entry): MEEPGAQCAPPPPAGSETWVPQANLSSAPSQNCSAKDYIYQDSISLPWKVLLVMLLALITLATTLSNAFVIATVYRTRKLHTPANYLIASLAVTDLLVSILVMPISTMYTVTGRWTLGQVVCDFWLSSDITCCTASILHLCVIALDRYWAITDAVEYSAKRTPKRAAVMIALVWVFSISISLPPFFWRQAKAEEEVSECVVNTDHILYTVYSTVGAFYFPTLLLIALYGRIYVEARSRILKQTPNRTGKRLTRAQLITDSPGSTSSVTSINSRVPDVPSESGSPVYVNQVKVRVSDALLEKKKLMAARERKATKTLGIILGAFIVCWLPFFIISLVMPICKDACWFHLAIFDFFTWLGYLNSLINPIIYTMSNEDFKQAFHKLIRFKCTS

With `NC/C=C(\F)CS(=O)(=O)c1ccccc1` [PXS-4787] the phospholipidosis score (HepG2 cells) was 0, the DHLNL ([1]; 1 µM) was 143.775 and 329.16 and 113.02 and 83.13 and 359.48 and 365.16 and 104.82 and the DPD ([1]; 1 µM) was 2.93 and 49.66 and 7.64 and 1.83 and 44.6 and 15.94 and 5.96. The HLNL ([1]; 1 µM) was 2792.14 and 4779.62 and 1377.5 and 1440.95 and 5514.92 and 6254.02 and 873.64, the “HYP (hydroxyproline)” value ([1]; 1 µM) was “did not reduce and 100208 and 1106205 and 113032 and 54746.7 and 1239040 and 1208884 and 155115” and the PYD ([1]; 1 µM) was 26.445 and 138.7 and 33.16 and 18.555 and 194.48 and 107.58 and 32.22. The DHLNL ([1]; 10 µM) was 74.25 and 254.16 and 91.76 and 55.65 and 288.12 and 246.36 and 90.12, the DPD ([1]; 10 µM) was 0 and 24.22 and 4.54 and 21.2 and 6.56 and 3.9 and the HLNL ([1]; 10 µM) was “trend reduction and 1564.75 and 3443.58 and 1107.32 and 1868.37 and 4501.9 and 4758.54 and 846.68”. For the same compound, the “HYP (hydroxyproline)” value ([1]; 10 µM) was “significantly (p = 0.0385) diminished and 52523.3 and 888147 and 121381 and 44633 and 1404421 and 949167 and 129547”, the PYD ([1]; 10 µM) was 5.86 and 65.12 and 17 and 7.95 and 92.68 and 46.62 and 20.6 and the inhibition at 10 µM (Histamine H3) was -5%. The inhibition at 10 µM (Neuropeptide Y Y1) was 0%, the inhibition at 10 µM [2] was -11% and the inhibition at 10 µM (Prostanoid EP4) was -2%.

For `NC/C=C(\F)C(F)(F)S(=O)(=O)c1ccccc1` [PXS-6302], the concentration at 24 h after the last dose ([3]; 400 mg of 0.5% cream on 16 cm^2, once daily for 5 days, 0.5% cream 400 mg once daily 5 days) was 4900 ± 800 ng/g, the concentration at 24 h after the last dose ([3]; 400 mg of 1% cream on 16 cm^2, once daily for 5 days, 1% cream 400 mg once daily 5 days) was 9300 ± 700 ng/g and the concentration at 24 h after the last dose ([3]; 400 mg of 3% cream on 16 cm^2, once daily for 5 days, 3% cream 400 mg once daily 5 days) was 31700 ± 3280 ng/g. For the same compound, the concentration at 24 h ([3]; 500 mg of 0.3% cream on 16 cm^2, single dose 0.3% cream) was 7900 ± 1500 ng/g, the concentration at 24 h ([3]; 500 mg of 1% cream on 16 cm^2, single dose 1% cream) was 8900 ± 1400 ng/g and the concentration at 24 h ([3]; 500 mg of 10% cream on 16 cm^2, single dose 10% cream) was 119000 ± 7800 ng/g. The inhibition at 30 µM [4] was -3%.
